Measured values: patent US7135470B2, “Thienopyridazines as IKK inhibitors” (Roche Palo Alto LLC, priority 2004, dated 2006)

Biological target: T1, purified recombinant human IKKb (Homo sapiens, UniProt O14920)
T1 sequence (O14920 1-756): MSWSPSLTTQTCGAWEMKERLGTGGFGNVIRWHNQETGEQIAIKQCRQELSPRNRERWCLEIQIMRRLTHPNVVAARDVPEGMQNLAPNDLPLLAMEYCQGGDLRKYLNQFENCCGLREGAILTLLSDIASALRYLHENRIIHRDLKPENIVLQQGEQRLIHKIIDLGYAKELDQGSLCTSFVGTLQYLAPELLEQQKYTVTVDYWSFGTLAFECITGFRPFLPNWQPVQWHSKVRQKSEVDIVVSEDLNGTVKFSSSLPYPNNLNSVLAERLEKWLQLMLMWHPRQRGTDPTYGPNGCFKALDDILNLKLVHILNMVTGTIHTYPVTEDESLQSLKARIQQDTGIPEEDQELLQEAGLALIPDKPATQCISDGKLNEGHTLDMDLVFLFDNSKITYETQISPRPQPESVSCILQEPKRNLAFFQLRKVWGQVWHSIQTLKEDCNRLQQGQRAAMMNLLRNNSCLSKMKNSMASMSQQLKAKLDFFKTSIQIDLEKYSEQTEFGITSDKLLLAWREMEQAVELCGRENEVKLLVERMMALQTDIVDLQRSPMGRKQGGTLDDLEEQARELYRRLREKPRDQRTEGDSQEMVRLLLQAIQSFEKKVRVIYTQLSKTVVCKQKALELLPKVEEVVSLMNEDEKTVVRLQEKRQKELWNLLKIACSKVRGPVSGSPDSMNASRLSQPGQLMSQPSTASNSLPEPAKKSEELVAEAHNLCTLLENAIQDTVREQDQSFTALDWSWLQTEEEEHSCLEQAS
Assay: IKKb kinase assay, incorporation of radiolabeled 33P gATP into Biotin-peptide substrate derived from IkB-alpha
Format: biochemical
Conditions: recombinant human IKKb 25 nM, ATP 10 μM, peptide substrate 30 μM, 30 minutes at 30° C.
Protocol: This example describes an assay that is useful in evaluating and selecting a compound that modulates IKK. The assay measures the incorporation of radiolabeled ^33P gATP into the Biotin-peptide kinase substrate, derived from the IkB-alpha sequence.
In a 40 ul volume, 26 ul of ADB diluted, purified recombinant human IKKb [25 nM] was mixed with 4 ul 10× concentration of test compounds, [usually 100 uM–0.003 uM], [10%] DMSO and incubated for 10 minutes at room temperature. The kinase reaction was initiated by the addition of 10 ul 4× substrate cocktail containing the peptide substrate [0 or 30 μM] ATP [10 μM], and ^33PgATP [2uCi/rxn]. After 30 minutes of incubation at 30° C., the reaction was terminated by the transfer of 25 ul reaction sample to a phosphocellulose membrane/plate containing 150 ul 0.75% phosphoric acid.
On the following day, the free radionucleotides in the phosphocellulose membrane were washed under vacuum with 3×200 ul of 0.75% phosphoric acid. After the last wash membrane/plates were transferred to an adoptor plate and 70 ul of scintillation cocktail was added to each well. After four hours, the amount of radioactivity for each well was counted in a top counter.

NC(=O)c1nnc(N)c2cc(-c3ccc(F)cc3)sc12 [Compound 3, 4-Amino-2-(4-fluoro-phenyl)-thieno[2,3-d]pyridazine-7-carboxylic acid amide]
IC50: < 1000 nM
